Laboratory results: ChEMBL document CHEMBL4308906, “Design and synthesis of selective CYP1B1 inhibitor via dearomatization of α-naphthoflavone” (Bioorg Med Chem, 2019)

Experiments:
[1] = target: T1, CYP1A1 (Homo sapiens, UniProt P04798); experiment: Inhibition of human recombinant CYP1A1 using 7-ethoxyresorufin as substrate assessed as percent enzyme activity at 1 uM after 15 mins in presence of NADPH by EROD assay relative to control; format: ADME; parameters: scale not given: the % may be the effect or the level left; conditions: recombinant CYP1A1, probe 7-ethoxyresorufin, read-out: Activity
T1 sequence (P04798 whole entry): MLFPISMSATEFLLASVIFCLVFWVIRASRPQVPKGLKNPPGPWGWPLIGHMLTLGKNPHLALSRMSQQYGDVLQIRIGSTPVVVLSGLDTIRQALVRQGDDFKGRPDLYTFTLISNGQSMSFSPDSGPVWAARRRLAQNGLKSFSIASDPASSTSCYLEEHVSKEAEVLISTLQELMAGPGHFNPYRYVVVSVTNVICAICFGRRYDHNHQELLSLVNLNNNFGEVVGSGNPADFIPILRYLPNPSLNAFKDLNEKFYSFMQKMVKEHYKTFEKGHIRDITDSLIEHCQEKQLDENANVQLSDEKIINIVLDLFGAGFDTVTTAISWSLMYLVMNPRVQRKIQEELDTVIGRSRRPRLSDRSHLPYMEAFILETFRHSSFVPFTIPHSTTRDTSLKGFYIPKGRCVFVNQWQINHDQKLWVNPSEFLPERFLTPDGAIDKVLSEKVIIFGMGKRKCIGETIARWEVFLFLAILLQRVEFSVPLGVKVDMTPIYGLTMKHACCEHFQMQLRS

[2] = target: T2, Cytochrome P450 1B1 (Homo sapiens, UniProt Q16678); experiment: Inhibition of human recombinant CYP1B1 using 7-ethoxyresorufin as substrate assessed as percent enzyme activity at 1 uM after 30 mins in presence of NADPH by EROD assay relative to control; parameters: scale not given: the % may be the effect or the level left; conditions: read-out: Activity
T2 sequence (Q16678 whole entry): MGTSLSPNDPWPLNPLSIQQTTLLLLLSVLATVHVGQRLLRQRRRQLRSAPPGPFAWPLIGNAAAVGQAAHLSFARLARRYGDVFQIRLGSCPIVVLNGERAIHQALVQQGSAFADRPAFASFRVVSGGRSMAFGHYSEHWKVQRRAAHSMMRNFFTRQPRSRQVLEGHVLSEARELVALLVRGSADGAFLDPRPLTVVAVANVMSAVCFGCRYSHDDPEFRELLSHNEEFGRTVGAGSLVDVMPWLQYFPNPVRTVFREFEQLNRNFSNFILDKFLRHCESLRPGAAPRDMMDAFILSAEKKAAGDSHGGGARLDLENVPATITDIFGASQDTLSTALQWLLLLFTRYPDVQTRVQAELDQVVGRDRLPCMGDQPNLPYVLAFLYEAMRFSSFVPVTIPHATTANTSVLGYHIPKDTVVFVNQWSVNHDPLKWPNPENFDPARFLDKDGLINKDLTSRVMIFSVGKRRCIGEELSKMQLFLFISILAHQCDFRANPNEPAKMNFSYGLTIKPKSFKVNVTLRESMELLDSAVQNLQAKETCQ

[3] = target: T2, Cytochrome P450 1B1; experiment: Binding affinity to human C-terminal 4His-tagged CYP1B1 expressed in Escherichia coli DH5alpha assessed as spectral dissociation constant by spectrophotometric analysis; conditions: read-out: Ks
[4] = species on record: Homo sapiens; experiment: Selectivity ratio of IC50 for human recombinant CYP1A1 to IC50 for human recombinant CYP1B1
[5] = target: T2, Cytochrome P450 1B1; experiment: Inhibition of human recombinant CYP1B1 using 7-ethoxyresorufin as substrate after 30 mins in presence of NADPH by EROD assay
[6] = target: T3, Cytochrome P450 1A1 (Homo sapiens, UniProt P04798); experiment: Inhibition of human recombinant CYP1A1 using 7-ethoxyresorufin as substrate after 15 mins in presence of NADPH by EROD assay; format: ADME
T3 sequence (P04798 whole entry): T1 sequence (P04798 whole entry)

[7] = target: T4, CYP1A2 (Homo sapiens, UniProt P05177); experiment: Inhibition of human recombinant CYP1A2 using 7-ethoxyresorufin as substrate assessed as percent enzyme activity at 1 uM after 30 mins in presence of NADPH by EROD assay relative to control; format: ADME; parameters: scale not given: the % may be the effect or the level left; conditions: recombinant CYP1A2, probe 7-ethoxyresorufin, read-out: Activity
T4 sequence (P05177 whole entry): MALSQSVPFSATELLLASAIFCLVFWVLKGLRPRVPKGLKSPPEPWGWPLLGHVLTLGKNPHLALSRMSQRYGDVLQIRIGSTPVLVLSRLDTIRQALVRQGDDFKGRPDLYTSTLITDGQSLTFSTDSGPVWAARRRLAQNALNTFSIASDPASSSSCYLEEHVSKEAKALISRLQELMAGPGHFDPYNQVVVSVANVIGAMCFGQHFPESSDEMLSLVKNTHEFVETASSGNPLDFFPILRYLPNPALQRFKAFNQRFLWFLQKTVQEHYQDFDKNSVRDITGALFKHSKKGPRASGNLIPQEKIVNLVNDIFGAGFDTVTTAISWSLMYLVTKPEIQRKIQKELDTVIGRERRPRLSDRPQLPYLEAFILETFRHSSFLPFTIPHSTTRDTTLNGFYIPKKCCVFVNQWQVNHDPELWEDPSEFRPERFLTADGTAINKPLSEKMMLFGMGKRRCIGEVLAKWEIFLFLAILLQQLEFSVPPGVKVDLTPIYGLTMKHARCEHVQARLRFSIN

Row | SMILES | activity at 0.25 h, 1 µM [1] [%] | activity at 0.5 h, 1 µM [2] [%] | Kd [3] [µM] | Ratio IC50 [4] | IC50 [5] [µM] | IC50 [6] [µM] | activity at 0.5 h, 1 µM [7] [%]
1 | O=c1cc(C2=CCCCC2)oc2c1ccc1ccccc12 | 3.2 | -12.9 | 1.1 | – | – | – | 21.2
2 | CN(C)C(=O)Sc1cccc(-c2cc(=O)c3ccc4ccccc4c3o2)c1 | 3.8 | 2.4 | – | – | – | – | 68.7
3 | CN(C)C(=O)Sc1ccc(-c2cc(=O)c3ccc4ccccc4c3o2)cc1 | 10.3 | 12.3 | – | – | – | – | 91.9
4 | CS(=O)(=O)O[C@H]1CCC[C@@H](c2cc(=O)c3ccc4ccccc4c3o2)C1 (relative stereo) | 38.6 | 80.5 | – | – | – | – | 79.1
5 | CS(=O)(=O)OCC1CCC(c2cc(=O)c3ccc4ccccc4c3o2)CC1 (racemic) | 78.1 | 50.1 | – | – | – | – | 96.4
6 | CS(=O)(=O)O[C@@H]1CCC[C@@H](c2cc(=O)c3ccc4ccccc4c3o2)C1 (relative stereo) | 66.5 | 59.9 | – | – | – | – | 69.1
7 | Nc1cccc(-c2cc(=O)c3ccc4ccccc4c3o2)c1 | 7.6 | 0.2 | – | – | – | – | -3.5
8 | Nc1ccc(-c2cc(=O)c3ccc4ccccc4c3o2)cc1 | 2.1 | -1.2 | – | – | – | – | -16.3
9 | c1c[nH]cn1 [IMIDAZOLE] | – | – | 1260 | – | – | – | –
10 | CN(C)C(=S)Oc1cccc(-c2cc(=O)c3ccc4ccccc4c3o2)c1 | 3.1 | 2.5 | – | – | – | – | 75.4
11 | CS(=O)(=O)O[C@H]1CC[C@H](c2cc(=O)c3ccc4ccccc4c3o2)CC1 | 69.9 | 72.5 | – | – | – | – | 80.3
12 | O=c1cc(-c2ccc(S)cc2)oc2c1ccc1ccccc12 | 71.3 | 54.3 | – | – | – | – | 106
13 | CS(=O)(=O)O[C@H]1CC[C@@H](c2cc(=O)c3ccc4ccccc4c3o2)CC1 | 66.1 | 51.5 | – | – | – | – | 57.7
14 | CN(C)C(=S)Oc1ccc(-c2cc(=O)c3ccc4ccccc4c3o2)cc1 | 17.6 | 15.1 | – | – | – | – | 96.9
15 | O=c1cc(-c2cccc(O)c2)oc2c1ccc1ccccc12 | 8.2 | 1.6 | – | – | – | – | 37.2
16 | O=c1cc(-c2cccc(S)c2)oc2c1ccc1ccccc12 | 18.7 | 9.8 | – | – | – | – | 56.2
17 | O=c1cc(C23CC4CC(CC(C4)C2)C3)oc2c1ccc1ccccc12 | 53.9 | 89 | – | – | – | – | 77.8
18 | COc1ccc(-c2cc(=O)c3ccc4ccccc4c3o2)cc1 | 4 | -0.5 | – | – | – | – | 15.9
19 | COc1cccc(-c2cc(=O)c3ccc4ccccc4c3o2)c1 | 8.7 | 1.9 | – | – | – | – | 6.1

Continued, values first:

Row | activity at 0.25 h, 1 µM [1] [%] | activity at 0.5 h, 1 µM [2] [%] | Kd [3] [µM] | Ratio IC50 [4] | IC50 [5] [µM] | IC50 [6] [µM] | activity at 0.5 h, 1 µM [7] [%] | SMILES
20 | 48.3 | 27.9 | 124 | – | – | – | – | CC(C)C1CCC(c2cc(=O)c3ccc4ccccc4c3o2)CC1 (mixture of isomers)
21 | 3.9 | 0.5 | 9.4 | 1.97 | 0.0388 | 0.0762 | – | O=c1cc([C@H]2CC[C@@H](S)CC2)oc2c1ccc1ccccc12
22 | 50.2 | 23.9 | 5.7 | – | – | – | 63 | CC1CCC(c2cc(=O)c3ccc4ccccc4c3o2)CC1 (mixture of isomers)
23 | 38.1 | 6.5 | 3.1 | – | – | – | 36.9 | O=c1cc(C2CC=CCC2)oc2c1ccc1ccccc12 (stereo not given)
24 | 85.9 | 56.9 | – | – | – | – | 92.7 | O=c1cc(C2CCC(CO)CC2)oc2c1ccc1ccccc12 (mixture of isomers)
25 | 0.5 | 15 | 264 | – | – | – | 8.8 | C#C[C@H]1CC[C@H](c2cc(=O)c3ccc4ccccc4c3o2)CC1
26 | 28 | 55.3 | – | – | – | – | 34.5 | O=c1cc(C2CCCC2)oc2c1ccc1ccccc12
27 | 61 | 83 | – | – | – | – | 34 | O=c1cc([C@H]2C[C@@H]3C=C[C@H]2C3)oc2c1ccc1ccccc12
28 | 87.3 | 90.4 | > 1220 | – | – | – | 77.3 | O=c1cc([C@H]2CC[C@@H](O)CC2)oc2c1ccc1ccccc12
29 | 78 | 72.9 | – | – | – | – | 73.9 | O=c1cc([C@@H]2CCC[C@@H](O)C2)oc2c1ccc1ccccc12 (relative stereo)
30 | 72.7 | 51.3 | 62.7 | – | – | – | 76.2 | O=c1cc([C@H]2CC[C@H](O)CC2)oc2c1ccc1ccccc12
31 | 31.7 | 4.4 | – | – | – | – | 0.5 | CC(=O)SC1CCCC(c2cc(=O)c3ccc4ccccc4c3o2)C1 (mixture of isomers)
32 | 73.7 | 81.6 | – | – | – | – | 74.5 | N[C@H]1CC[C@@H](c2cc(=O)c3ccc4ccccc4c3o2)CC1
33 | 11.3 | 0.9 | 7.3 | – | – | – | 21 | C#C[C@H]1CC[C@@H](c2cc(=O)c3ccc4ccccc4c3o2)CC1
34 | 80.9 | 64.7 | 2.9 | – | – | – | 44.5 | NC1CCCC(c2cc(=O)c3ccc4ccccc4c3o2)C1 (mixture of isomers)
35 | 84.2 | 89.5 | – | – | – | – | 95.4 | N[C@H]1CC[C@H](c2cc(=O)c3ccc4ccccc4c3o2)CC1
36 | 43 | 74 | – | – | – | – | 0 | O=c1cc([C@H]2C[C@H]3C=C[C@@H]2C3)oc2c1ccc1ccccc12
37 | 71.3 | 79.4 | – | – | – | – | 68.2 | O=c1cc([C@@H]2CCC[C@H](O)C2)oc2c1ccc1ccccc12 (relative stereo)
38 | 0 | -2.5 | 8.1 | 2.02 | 0.0661 | 0.134 | – | O=c1cc(C2CCCC(S)C2)oc2c1ccc1ccccc12 (mixture of isomers)
39 | 36.1 | -4 | – | – | 0.0903 | – | 42.5 | [N-]=[N+]=NC1CCCC(c2cc(=O)c3ccc4ccccc4c3o2)C1 (mixture of isomers)
